Laboratory results from patent US20060079453A1, “Hla binding peptides and their uses” (priority 2002, published 2006).
Where two headings read alike, the source gives them in different places. No end group written: not given here.

Key:
Experiment in all cases: biochemical
Assay type in all cases: binding
[1] = target: HLA-DR DRB1*0101 (DR1) (Homo sapiens, UniProt P01903+P01911, A100R/D57E/F55L/F60I/F76Y/I96L/L162R/M171V/P40L/Q125E/R42F/V115G/Y59C)
[2] = target: HLA-DR DRB1*0301 (DR3) (Homo sapiens, UniProt P01903+P01911, A100K/A102G/A103R/A169T/F55Y/I96L/K41T/L162R/M171V/P40S/Q125H/Q178H/Q39Y/R42S/S66N/T106N/T262R/W38E/Y61H)
[3] = target: HLA-DR DRB1*0401 (DR4) (Homo sapiens, UniProt P01903+P01911, A100K/A169T/F76Y/I96L/K127E/L162R/M171V/N62H/P40V/Q125Y/R42H/S133A/S149N/S66Y/V115G/V209L/W38E)
[4] = target: HLA-DR DRB1*0405 (DR4) (Homo sapiens, UniProt P01903+P01911, A100R/A169T/D86S/F76Y/I96L/K127E/L162R/M171V/N62H/P40V/Q125Y/R42H/S133A/S149N/S66Y/V115G/V209L/W38E)
[5] = target: HLA-DR DRB1*0701 (DR7) (Homo sapiens, UniProt P01903+P01911, A100R/A102G/A103Q/D57E/D86V/E43K/F76Y/K127E/L162R/M171V/P40G/Q125H/Q99D/R33Q/R42Y/R54Q/S133A/S66F/T210M/V115G/Y107V/Y59L/Y89S)
[6] = target: HLA-DR DRB1*0802 (DR8) (Homo sapiens, UniProt P01903+P01911, A100R/A103L/A169T/F76Y/H45Y/I96F/K41T/L162R/M171V/P40S/Q125H/Q178H/Q39Y/Q99D/R218S/R42G/S66Y/V115G/W38E)
[7] = target: HLA-DR DRB1*0901 (DR9) (Homo sapiens, UniProt P01903+P01911, A100R/A103E/D57H/D86V/F55Y/F60I/F76Y/I96F/K127E/L162R/M171V/P40D/Q125H/Q99R/R33Q/R42F/S133A/S66N/T210M/V115G/W38K/Y107V/Y59G/Y89S)
[8] = target: HLA-DR DRB1*1101 (DR11) (Homo sapiens, UniProt P01903+P01911, A100R/A169T/A87E/I96F/K41T/L162R/M171V/P40S/Q125H/Q178H/Q39Y/Q99D/R42S/S66Y/T262R/V115G/W38E)
[9] = target: HLA-DR DRB1*1302 (DR13) (Homo sapiens, UniProt P01903+P01911, A100E/A169T/K41T/L162R/M171V/P40S/Q125H/Q178H/Q39Y/Q99D/R42S/S66N/T262R/V115G/W38E/Y61H)
[10] = target: HLA-DR DRB1*1501 (DR15) (Homo sapiens, UniProt P01903+P01911)
[11] = target: HLA-DR DRB4*0101 (DR53) (Homo sapiens, UniProt P01903+P13762, G164S)
[12] = target: HLA-DR DRB5*0101 (DR51) (Homo sapiens, UniProt P01903+Q30154)

Sequence of HLA-DR DRB1*1302 (DR13) (P01903 26-254 limits assumed, other chains not shown): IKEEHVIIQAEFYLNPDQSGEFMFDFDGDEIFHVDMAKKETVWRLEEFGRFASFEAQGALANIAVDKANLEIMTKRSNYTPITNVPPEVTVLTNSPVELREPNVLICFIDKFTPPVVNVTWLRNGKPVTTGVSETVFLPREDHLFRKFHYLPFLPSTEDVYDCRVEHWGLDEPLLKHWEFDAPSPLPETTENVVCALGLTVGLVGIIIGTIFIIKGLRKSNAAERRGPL
Sequence of HLA-DR DRB1*1101 (DR11) (P01903 26-254 limits assumed, other chains not shown): as above
Sequence of HLA-DR DRB1*0301 (DR3) (P01903 26-254 limits assumed, other chains not shown): as above

Row | Molecule | IC50 [1] | IC50 [2] | IC50 [3] | IC50 [4] | IC50 [5] | IC50 [6] | IC50 [7] | IC50 ([1]; DRB1 *0101) | IC50 ([3]; DRB1 *0401) | IC50 ([4]; DRB1 *0405) | IC50 ([5]; DRB1 *0701) | IC50 ([7]; DRB1 *0901) | IC50 ([8]; DRB1 *1101) | IC50 ([9]; DRBI *1302) | IC50 ([10]; DRBI *1501) | IC50 ([11]; DRB4 *0101) | IC50 ([12]; DRB5 *0101) | IC50 [8] | IC50 [9] | IC50 [11] | also measured
1 | CC[C@H](C)[C@H](NC(=O)[C@H](CCCCN)NC(=O)[C@H](CC(N)=O)NC(=O)[C@@H](NC(=O)[C@@H](NC(=O)[C@H](CC(C)C)NC(=O)[C@@H](NC(=O)[C@H](CO)NC(=O)[C@H](CC(C)C)NC(=O)[C@H](C)N)[C@@H](C)O)C(C)C)C(C)C)C(=O)N[C@@H](CCCNC(=N)N)C(=O)NCC(=O)N[C@H](C(=O)N[C@@H](Cc1ccccc1)C(=O)N[C@@H](CCCCN)C(=O)O)[C@@H](C)O | 75 nM | 274 nM | 648 nM | 3630 nM | 396 nM | 20 nM | 18000 nM |  |  |  |  |  |  |  |  |  |  |  |  |  | 
2 | CC[C@H](C)[C@H](NC(=O)[C@H](CCC(=O)O)NC(=O)[C@@H](NC(=O)[C@H](Cc1ccc(O)cc1)NC(=O)[C@H](CCC(=O)O)NC(=O)[C@@H](N)CCC(=O)O)C(C)C)C(=O)N[C@@H](CCCNC(=N)N)C(=O)N[C@@H](CCC(N)=O)C(=O)N[C@H](C(=O)NCC(=O)N[C@@H](CC(=O)O)C(=O)N[C@@H](Cc1ccccc1)C(=O)N[C@@H](Cc1c[nH]cn1)C(=O)O)C(C)C |  | 74900 nM |  |  |  | 13900 nM |  | > 1960 nM | > 5370 nM | 26 nM | 11300 nM | 11200 nM | 4680 nM | > 1900 nM | 2060 nM | 2060 nM | 9750 nM |  |  |  | 
3 | CC[C@H](C)[C@H](NC(=O)[C@H](CCCCN)NC(=O)[C@H](CC(N)=O)NC(=O)[C@@H](NC(=O)[C@@H](NC(=O)[C@H](CC(C)C)NC(=O)[C@@H](NC(=O)[C@H](CO)NC(=O)[C@H](CC(C)C)NC(=O)[C@H](C)NC(=O)[C@H](CCC(=O)O)NC(=O)CN)[C@@H](C)O)C(C)C)C(C)C)C(=O)N[C@@H](CCCNC(=N)N)C(=O)NCC(=O)N[C@H](C(=O)O)[C@@H](C)O |  | 29700 nM |  | 30100 nM |  | 383 nM | 40800 nM |  |  |  |  |  |  |  |  |  | 108 nM | 977 nM | 55 nM | 1510 nM | 
4 | CC[C@H](C)[C@H](N)C(=O)N[C@@H](C)C(=O)NCC(=O)N[C@@H](CC(C)C)C(=O)N[C@@H](Cc1ccccc1)C(=O)N[C@@H](CC(C)C)C(=O)N[C@H](C(=O)N[C@H](C(=O)N[C@@H](CCC(=O)O)C(=O)N[C@@H](C)C(=O)N[C@H](C(=O)N[C@H](C(=O)N[C@@H](C)C(=O)N[C@@H](CC(=O)O)C(=O)N[C@@H](CCCCN)C(=O)O)C(C)C)C(C)C)[C@@H](C)O)[C@@H](C)O | 6.8 nM |  | 13 nM | 67 nM | 230 nM | 3890 nM | 409 nM |  |  |  |  |  |  |  |  |  |  | 867 nM | > 10300 nM | > 26400 nM | IC50 [10]: > 50800 nM
5 | CC(C)C[C@H](N)C(=O)N[C@@H](CCC(=O)O)C(=O)N1CCC[C@H]1C(=O)N[C@@H](Cc1c[nH]c2ccccc12)C(=O)N[C@@H](CC(N)=O)C(=O)N[C@@H](Cc1c[nH]cn1)C(=O)N1CCC[C@H]1C(=O)NCC(=O)N[C@@H](CO)C(=O)N[C@@H](CCC(N)=O)C(=O)N1CCC[C@H]1C(=O)N[C@@H](CCCCN)C(=O)N[C@H](C(=O)N[C@@H](C)C(=O)N[C@@H](CS)C(=O)N[C@H](C(=O)O)[C@@H](C)O)[C@@H](C)O | > 33600 nM | > 328000 nM | > 33300 nM | > 8230 nM | > 72300 nM | 69200 nM | 34500 nM |  |  |  |  |  |  |  |  |  |  | > 15300 nM | > 11000 nM | 92 nM | IC50 [12]: 2940 nM
6 | ALSTLVLNRLKVGLQ |  |  |  |  |  | 4 nM |  | 49 nM | 517 nM | 2170 nM | 647 nM | 2170 nM | 9.1 nM | 4.6 nM | 191 nM | 17 nM | 3.9 nM |  |  |  | 
7 | ALWRVSAEEY |  | > 76600 nM |  |  |  | 4100 nM |  | > 6340 nM | 6540 nM | > 35300 nM | 7950 nM | 698 nM | 243 nM | > 6400 nM | > 15300 nM | > 7930 nM | > 35600 nM |  |  |  | 
8 | AYVLLSEKKISSIQS |  |  |  |  |  | 27 nM |  | 78 nM | 943 nM | 9470 nM | 3850 nM | 3340 nM | 51 nM | 816 nM | 489 nM | 902 nM | 4520 nM |  |  |  | 
9 | CCTSICSLYQLENY |  |  |  |  |  |  |  |  |  |  |  |  |  |  |  |  |  |  |  |  | IC50 ([2]; read-out: DRB1 *0301): 71200 nM; IC50 ([3]; read-out: DRB1 *0401): 8380 nM; IC50 ([4]; read-out: DRB1 *0405): 629 nM; IC50 ([5]; read-out: DRB1 *0701): 35600 nM; IC50 ([6]; read-out: DRB1 *0802): > 54400 nM; IC50 ([7]; read-out: DRB1 *0901): 29800 nM
10 | DFSYLQDSDPDSFQD |  |  |  |  |  | > 61200 nM |  |  | 264 nM | > 127000 nM | > 250000 nM | > 107000 nM |  | > 35000 nM | > 91000 nM |  | > 40000 nM |  |  |  | 
